Values joined by “and” are separate entries in the source; they are usually repeats but may differ in a detail not shown here. Identical values can stand only once. “Also recorded” adds a separate entry of the source. Like-named read-outs stand apart in the source and are kept apart here. Positions of bridges follow the written chain, without caps; N, C: chain ends. Residues, ends and D or L forms follow the SMILES beside them.
What was measured:
[1] = biological target: Cav1 channels endogenously expressed in SH-SY5Y cells (Homo sapiens, UniProt Q01668); experiment: Inhibition of KCl-evoked Cav1 Ca2+ responses in presence of CVID, FLIPR-Tetra; assay type: cell-based; conditions: in presence of saturating CVID
Cav3 = system: Cav3; parameters: method as in PMID 10991994, PMID 9481480; conditions: different systems; cited from earlier work
[2] = system: resistant KCl-evoked Ca^2+ responses in SH-SY5Y cells; experiment: cells; assay type: cell-based, human; conditions: for IC50: Homo sapiens, SH-SY5Y, read-out: Ca2+ inhibition IC50, resistant responses
L-type channels = system: L-type channels; parameters: method as in PMID 10991994, PMID 7565636; conditions: cited from earlier work
[3] = biological target: Cav2.2 expressed in rat brain (Rattus norvegicus, UniProt Q02294); experiment: biochemical; assay type: binding, rat (male Wistar)
[4] = biological target: Cav2.2 channels endogenously expressed in SH-SY5Y cells (Homo sapiens, UniProt Q00975); experiment: cell-based
[5] = biological target: Cav2.2 expressed in SH-SY5Y whole cell (Homo sapiens, UniProt Q00975); experiment: cell-based; assay type: binding
[6] = biological target: Cav2.2 expressed in SH-SY5Y membranes (Homo sapiens, UniProt Q00975); experiment: biochemical; assay type: binding
[7] = system: Cav channels endogenously expressed in SH-SY5Y cells; assay type: cell-based, human
α2δ = system: α2δ; parameters: method as in PMID 19559597; conditions: cited from earlier work
[8] = in presence of CVID and nifedipine, agatoxins and SNX 482 up to 10 µM, mibefradil 30 µM

Cav2.2 channels endogenously expressed in SH-SY5Y cells, sequence (Q00975 whole entry, looked up): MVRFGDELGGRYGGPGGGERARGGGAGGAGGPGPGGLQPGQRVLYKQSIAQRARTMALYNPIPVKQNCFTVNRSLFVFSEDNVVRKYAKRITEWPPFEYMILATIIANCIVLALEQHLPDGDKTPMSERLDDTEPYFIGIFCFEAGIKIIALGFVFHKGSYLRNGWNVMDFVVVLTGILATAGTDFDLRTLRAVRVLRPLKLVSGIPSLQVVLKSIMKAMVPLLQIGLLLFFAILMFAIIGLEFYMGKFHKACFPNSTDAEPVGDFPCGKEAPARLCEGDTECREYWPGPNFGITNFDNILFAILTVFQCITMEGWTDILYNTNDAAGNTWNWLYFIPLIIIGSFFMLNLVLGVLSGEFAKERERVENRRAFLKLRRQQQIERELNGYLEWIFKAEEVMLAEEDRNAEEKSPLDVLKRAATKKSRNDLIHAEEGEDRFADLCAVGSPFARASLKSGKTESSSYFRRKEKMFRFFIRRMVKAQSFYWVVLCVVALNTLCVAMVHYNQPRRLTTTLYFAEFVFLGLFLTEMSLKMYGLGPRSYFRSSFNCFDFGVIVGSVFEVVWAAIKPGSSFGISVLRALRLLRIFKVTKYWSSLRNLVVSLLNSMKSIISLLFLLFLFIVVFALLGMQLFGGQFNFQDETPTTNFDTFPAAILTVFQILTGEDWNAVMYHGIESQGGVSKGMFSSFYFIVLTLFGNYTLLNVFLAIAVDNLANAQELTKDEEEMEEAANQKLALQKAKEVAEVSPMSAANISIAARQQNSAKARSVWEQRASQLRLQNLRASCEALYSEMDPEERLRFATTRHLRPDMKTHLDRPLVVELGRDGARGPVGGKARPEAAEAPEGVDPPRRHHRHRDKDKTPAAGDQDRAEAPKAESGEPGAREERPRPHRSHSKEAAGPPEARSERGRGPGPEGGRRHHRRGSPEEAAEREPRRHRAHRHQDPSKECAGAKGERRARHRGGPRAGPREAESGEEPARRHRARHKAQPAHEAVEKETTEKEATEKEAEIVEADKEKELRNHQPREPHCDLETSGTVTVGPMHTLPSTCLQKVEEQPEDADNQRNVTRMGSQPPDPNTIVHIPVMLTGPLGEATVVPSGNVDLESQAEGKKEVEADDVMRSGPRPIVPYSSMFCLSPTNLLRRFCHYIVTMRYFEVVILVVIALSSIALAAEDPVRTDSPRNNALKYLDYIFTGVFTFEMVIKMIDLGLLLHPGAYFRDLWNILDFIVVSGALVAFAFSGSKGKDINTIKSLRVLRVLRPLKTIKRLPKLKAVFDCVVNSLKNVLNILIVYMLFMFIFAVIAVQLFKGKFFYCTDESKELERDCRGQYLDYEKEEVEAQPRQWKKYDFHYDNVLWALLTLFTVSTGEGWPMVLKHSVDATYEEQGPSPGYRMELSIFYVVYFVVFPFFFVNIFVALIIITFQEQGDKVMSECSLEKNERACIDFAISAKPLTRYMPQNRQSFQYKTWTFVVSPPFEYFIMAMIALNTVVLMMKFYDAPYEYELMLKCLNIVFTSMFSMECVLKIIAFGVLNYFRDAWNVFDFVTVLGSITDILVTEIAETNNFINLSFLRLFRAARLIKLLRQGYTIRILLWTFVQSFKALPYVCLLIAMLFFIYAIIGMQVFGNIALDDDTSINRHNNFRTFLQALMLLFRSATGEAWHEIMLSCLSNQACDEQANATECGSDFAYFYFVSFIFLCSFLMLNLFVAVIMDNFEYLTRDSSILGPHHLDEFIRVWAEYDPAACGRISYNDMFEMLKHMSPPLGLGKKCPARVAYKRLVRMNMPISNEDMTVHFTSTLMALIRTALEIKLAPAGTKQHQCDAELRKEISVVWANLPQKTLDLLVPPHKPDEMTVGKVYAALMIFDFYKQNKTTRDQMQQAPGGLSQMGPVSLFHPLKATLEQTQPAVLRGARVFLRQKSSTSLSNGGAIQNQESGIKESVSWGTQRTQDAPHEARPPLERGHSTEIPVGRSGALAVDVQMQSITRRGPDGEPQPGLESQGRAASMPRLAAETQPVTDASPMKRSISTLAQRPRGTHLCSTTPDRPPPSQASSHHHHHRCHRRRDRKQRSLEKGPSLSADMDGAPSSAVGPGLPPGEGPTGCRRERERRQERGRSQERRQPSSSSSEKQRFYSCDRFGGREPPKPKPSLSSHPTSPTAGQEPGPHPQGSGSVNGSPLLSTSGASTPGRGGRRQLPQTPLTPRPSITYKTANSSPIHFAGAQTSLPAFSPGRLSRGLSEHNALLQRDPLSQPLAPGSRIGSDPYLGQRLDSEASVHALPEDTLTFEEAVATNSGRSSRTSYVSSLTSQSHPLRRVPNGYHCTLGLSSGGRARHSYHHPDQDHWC
Cav2.2 expressed in SH-SY5Y membranes, sequence (Q00975 whole entry, looked up): as above
Cav2.2 expressed in SH-SY5Y whole cell, sequence (Q00975 whole entry, looked up): as above
Cav2.2 expressed in rat brain, sequence (Q02294 whole entry, looked up): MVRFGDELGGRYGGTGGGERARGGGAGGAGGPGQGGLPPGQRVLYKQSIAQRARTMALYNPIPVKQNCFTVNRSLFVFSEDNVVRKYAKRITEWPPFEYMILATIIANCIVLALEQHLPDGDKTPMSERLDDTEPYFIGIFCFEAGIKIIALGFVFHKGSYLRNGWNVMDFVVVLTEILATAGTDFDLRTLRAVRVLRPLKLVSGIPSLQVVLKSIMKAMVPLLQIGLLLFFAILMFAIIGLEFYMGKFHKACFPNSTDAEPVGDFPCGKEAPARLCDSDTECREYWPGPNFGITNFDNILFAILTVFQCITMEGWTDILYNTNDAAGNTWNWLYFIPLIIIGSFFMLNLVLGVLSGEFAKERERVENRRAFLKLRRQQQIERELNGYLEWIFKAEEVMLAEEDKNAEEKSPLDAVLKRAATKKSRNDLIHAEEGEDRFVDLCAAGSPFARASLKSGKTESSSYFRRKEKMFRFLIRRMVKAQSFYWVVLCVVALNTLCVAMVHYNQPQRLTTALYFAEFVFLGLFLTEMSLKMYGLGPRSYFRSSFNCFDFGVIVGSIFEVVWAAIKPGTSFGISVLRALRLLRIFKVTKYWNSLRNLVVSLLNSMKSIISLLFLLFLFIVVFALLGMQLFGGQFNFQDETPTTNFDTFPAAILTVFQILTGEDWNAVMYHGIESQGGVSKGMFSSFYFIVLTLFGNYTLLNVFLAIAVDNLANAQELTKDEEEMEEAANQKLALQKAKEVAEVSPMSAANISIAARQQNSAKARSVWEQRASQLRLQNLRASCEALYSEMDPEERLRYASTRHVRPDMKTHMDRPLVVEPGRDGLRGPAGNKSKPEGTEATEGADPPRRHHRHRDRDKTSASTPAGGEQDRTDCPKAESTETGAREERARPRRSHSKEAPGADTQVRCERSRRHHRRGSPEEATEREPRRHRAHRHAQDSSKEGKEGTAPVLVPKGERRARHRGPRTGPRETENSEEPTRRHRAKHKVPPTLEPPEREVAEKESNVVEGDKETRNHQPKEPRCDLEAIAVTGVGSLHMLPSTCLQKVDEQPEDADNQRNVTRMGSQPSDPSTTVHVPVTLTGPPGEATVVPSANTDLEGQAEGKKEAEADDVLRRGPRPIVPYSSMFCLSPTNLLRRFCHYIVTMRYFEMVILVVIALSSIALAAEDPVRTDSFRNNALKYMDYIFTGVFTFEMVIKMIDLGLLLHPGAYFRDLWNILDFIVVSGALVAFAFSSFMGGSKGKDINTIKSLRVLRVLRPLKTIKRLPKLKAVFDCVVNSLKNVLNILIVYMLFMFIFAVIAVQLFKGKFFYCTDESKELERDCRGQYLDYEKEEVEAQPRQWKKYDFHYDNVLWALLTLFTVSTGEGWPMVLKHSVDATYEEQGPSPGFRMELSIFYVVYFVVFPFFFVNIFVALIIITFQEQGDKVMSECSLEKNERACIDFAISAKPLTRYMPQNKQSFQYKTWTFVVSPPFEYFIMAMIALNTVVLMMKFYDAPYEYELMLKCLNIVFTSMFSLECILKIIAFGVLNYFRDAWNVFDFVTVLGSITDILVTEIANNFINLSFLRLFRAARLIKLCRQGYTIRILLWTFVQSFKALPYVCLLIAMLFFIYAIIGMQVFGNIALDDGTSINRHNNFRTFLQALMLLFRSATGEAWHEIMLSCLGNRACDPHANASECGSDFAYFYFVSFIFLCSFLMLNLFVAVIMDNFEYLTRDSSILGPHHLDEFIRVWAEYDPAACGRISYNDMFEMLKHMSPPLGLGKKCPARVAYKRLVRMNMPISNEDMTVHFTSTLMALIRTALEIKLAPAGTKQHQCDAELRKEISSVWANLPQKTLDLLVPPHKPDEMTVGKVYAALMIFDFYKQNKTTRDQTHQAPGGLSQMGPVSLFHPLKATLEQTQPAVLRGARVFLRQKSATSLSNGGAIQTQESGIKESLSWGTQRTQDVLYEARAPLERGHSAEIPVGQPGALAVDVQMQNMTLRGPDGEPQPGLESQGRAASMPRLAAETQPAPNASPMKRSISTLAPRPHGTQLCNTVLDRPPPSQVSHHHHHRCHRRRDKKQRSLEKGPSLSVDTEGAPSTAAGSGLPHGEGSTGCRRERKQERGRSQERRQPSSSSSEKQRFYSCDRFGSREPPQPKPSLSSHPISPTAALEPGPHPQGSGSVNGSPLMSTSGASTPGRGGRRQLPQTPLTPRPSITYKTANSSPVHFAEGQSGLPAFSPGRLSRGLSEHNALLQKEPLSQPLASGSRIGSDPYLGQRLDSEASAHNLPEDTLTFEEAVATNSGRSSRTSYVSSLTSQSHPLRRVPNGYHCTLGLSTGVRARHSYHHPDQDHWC

Question: Which “Block of L-type KCl responses (in words)” value [1] does the source give for `COC(=O)C1=C(C)NC(C)=C(C(=O)OC)C1c1ccccc1[N+](=O)[O-]` [nifedipine] here?
Answer: concentration-dependently blocked KCl responses

Question: With `COCC(=O)O[C@]1(CCN(C)CCCc2nc3ccccc3[nH]2)CCc2cc(F)ccc2[C@@H]1C(C)C` [mibefradil] as the molecule, how does the “Inhibition of Cav3 responses (in words)” value (Cav3) read?
Answer: weak affinity

Question: And the IC50 [2]?
Answer: 3 ± 0.031 µM

Question: And the “Effect on resistant KCl-evoked Ca2+ responses (in words)” value [2, 8]?
Answer: fully inhibited these remaining responses; also recorded: completely abolished

Question: And the “Inhibition of L-type channels (in words)” value (L-type channels)?
Answer: also inhibit L-type channels

Question: With `CSCC[C@@H]1NC(=O)[C@H](CC(C)C)NC(=O)[C@H](CCCCN)NC(=O)[C@H](CO)NC(=O)[C@@H]2CSSC[C@@H]3NC(=O)[C@H](CO)NC(=O)CNC(=O)[C@H](CO)NC(=O)[C@H](CSSC[C@H](N)C(=O)N[C@@H](CCCCN)C(=O)N[C@@H](CO)C(=O)N[C@@H](CCCCN)C(=O)NCC(=O)N[C@@H](C)C(=O)N[C@@H](CCCCN)C(=O)N2)NC(=O)[C@H](CSSC[C@@H](C(N)=O)NC(=O)[C@H](CCCNC(=N)N)NC(=O)CNC(=O)[C@H](C(C)C)NC(=O)[C@H]([C@@H](C)O)NC(=O)CNC(=O)[C@H](CO)NC3=O)NC(=O)[C@H](CC(=O)O)NC(=O)[C@H](Cc2ccc(O)cc2)NC1=O` [CVID] (H-CKSKGAKCSKLMYDCCSGSCSGTVGRC-NH2; disulfide 1-16, 8-20, 15-27) as the molecule, how does the IC50 [3] read?
Answer: 0.0295 nM

Question: And the IC50 [4]?
Answer: 0.16 ± 0.025 µM

Question: What about the Kd [5] of the same molecule?
Answer: 0.0032 ± 0.0002 µM

Question: What about the IC50 [6] of the same molecule?
Answer: 0.00309 nM

Question: With KCl as the molecule, how does the Hill slope [7] read?
Answer: 2.5 and 2.9 and 3.5

Question: What about the “KCl-evoked Ca2+ response (in words)” value [7] of the same molecule?
Answer: evoked a large transient response; also recorded: elicits maximal Cav1 and Cav2.2 responses

Question: What about the “pEC50 for KCl-mediated stimulation” value [7] of the same molecule?
Answer: 1.69±0.12

Question: And the EC50 ([7]; read-out: Ca2+ stimulation EC50)?
Answer: 17300 ± 3410 µM

Question: Which “Effect on resistant KCl-evoked Ca2+ responses (in words)” value [2] does the source give for ω-agatoxin IVA here?
Answer: did not significantly affect KCl-evoked Ca^2+ responses

Question: Which results are given for SNX 482?
Answer: Ca2+ inhibition IC50, resistant responses [2]: NDR; Effect on resistant KCl-evoked Ca2+ responses (in words) [2]: no significant inhibitory effect; also recorded: not blocked

Question: For ω-agatoxin, which “Effect on resistant KCl-evoked Ca2+ responses (in words)” value [2] is on record?
Answer: not blocked

Question: For `NCC1(CC(=O)O)CCCCC1` [gabapentin], which “Effect of α2δ binding on Cav2.2 trafficking and pain (in words)” value (α2δ) is on record?
Answer: reducing Cav2.2 trafficking and the symptoms of pain

Question: Which IC50 [2] does the source give for `O=c1[nH]c2ccccc2n1C1CCN(CCCC(c2ccc(F)cc2)c2ccc(F)cc2)CC1` [pimozide] here?
Answer: 1.3 ± 0.097 µM

Question: What about the “Effect on resistant KCl-evoked Ca2+ responses (in words)” value [2, 8] of the same molecule?
Answer: fully inhibited the remaining responses; also recorded: completely abolished

Question: And the “Inhibition of L-type channels (in words)” value (L-type channels)?
Answer: also inhibit L-type channels

Question: For `C[C@@H](O)[C@@H]1NC(=O)[C@H](Cc2ccc(O)cc2)NC(=O)[C@@H]2C[C@@H](O)CN2C(=O)[C@H](CC(N)=O)NC(=O)[C@@H]2CSSC[C@@H]3NC(=O)[C@H](CO)NC(=O)[C@H](CO)NC(=O)CNC(=O)[C@@H]4C[C@@H](O)CN4C(=O)[C@H](CO)NC(=O)[C@H](CCCCN)NC(=O)[C@@H](N)CSSC[C@H](NC(=O)[C@H](CSSC[C@@H](C(=O)N[C@@H](Cc4ccc(O)cc4)C(N)=O)NC(=O)[C@H](CCCN=C(N)N)NC(=O)[C@H](CCCCN)NC1=O)NC(=O)[C@H](CC(N)=O)NC(=O)[C@H](Cc1ccc(O)cc1)NC(=O)[C@H](CO)NC(=O)[C@H]([C@@H](C)O)NC(=O)[C@@H]1C[C@@H](O)CN1C(=O)[C@H](CO)NC3=O)C(=O)N[C@@H](CCCN=C(N)N)C(=O)N[C@@H](CO)C(=O)N2` [GVIA], which IC50 [3] is on record?
Answer: 0.0372 nM

Question: And the IC50 [4]?
Answer: 0.15 ± 0.09 µM

Question: And the Kd [5]?
Answer: 0.00027 ± 8.4e-05 µM

Question: What about the IC50 [6] of the same molecule?
Answer: 0.0282 nM
